Assay results: article PMC6529808 (Metallomics : integrated biometal science, 2018)

Biological target: MhuDCH (Mycobacterium tuberculosis, UniProt P9WKH3)
Format: binding
Settings: second site (MhuD-diheme); 5 μM protein, 50 mM Tris pH 7.4, 150 mM NaCl

Chain of MhuDCH (P9WKH3 whole entry): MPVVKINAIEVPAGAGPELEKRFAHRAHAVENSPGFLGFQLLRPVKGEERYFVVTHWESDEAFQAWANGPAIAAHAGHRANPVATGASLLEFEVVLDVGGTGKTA

**Q.** Which Kd2 does the source give for `C=CC1=C(C)C2=Cc3c(C=C)c(C)c4[n]3[Fe][n]3c(c(C)c(CCC(=O)O)c3=CC3=NC(=C4)C(C)=C3CCC(=O)O)=CC1=N2` [heme] here?
**A.** 3.3 ± 1.1 µM
